Experimental data as given in PMC3594701 (Journal of acquired immune deficiency syndromes (1999), 2011).
Marks after values point to notes of the source that are not given here.

Columns and labels:
[1] = 10 HIV-infected individuals, 6 also on twice-daily darunavir/ritonavir; cited from earlier work
[2] = Steady-state plasma pharmacokinetics; assay type: in vivo, human; details: for Cmax: GM Cmax
[3] = IC accumulation: ratio of IC drug to drug in plasma; details: human, GM IC to Plasma Ratio
[4] = test system: HIV; details: 800 mg once daily versus approved 400 mg twice-daily dose; cited from earlier work
[5] = Steady-state intracellular; assay type: in vivo, human; details: IC (PBMC); for GM AUC: AUC0–12; for Cmax: GM Cmax
[6] = group 1, period 2 (day 35): raltegravir 400 mg twice daily + darunavir/ritonavir 800/100 mg once daily
[7] = group 1, period 2 (day 35): raltegravir 400 mg twice daily + darunavir/ritonavir 800/100 mg once daily, listed as raltegravir
[8] = group 2, period 2 (day 35): raltegravir 800 mg once daily + darunavir/ritonavir 800/100 mg once daily

## Cc1nnc(C(=O)NC(C)(C)c2nc(C(=O)NCc3ccc(F)cc3)c(O)c(=O)n2C)o1 [Raltegravir, raltegravir]
[1]
  decrease of plasma AUC: 33%
[2]; [6]
  GM Ctrough: 20 ng/mL
[2]; [7]
  GM Ctrough: 20 (17–25) ng/mL
[2]; [8]
  GM Ctrough: 11 ^* ng/mL
[2]; human, group 1, period 2 (day 35): raltegravir 400 mg twice daily + darunavir/ritonavir 800/100 mg once daily
  Cmax: 438 ng/mL
[2]; human, GM Ctrough, group 1, period 1 (day 21): raltegravir 400 mg twice daily, without darunavir/ritonavir
  concentration at 12 h: 23 ng/mL
[2]; human, GM Ctrough, group 2, period 1 (day 21): raltegravir 400 mg twice daily, without darunavir/ritonavir
  concentration at 12 h: 28 ng/mL
[2]; human, oral, 400 mg, group 1, period 1 (day 21): raltegravir 400 mg twice daily, without darunavir/ritonavir
  Cmax: 533 ng/mL
[2]; human, oral, 400 mg, group 2, period 1 (day 21): raltegravir 400 mg twice daily, without darunavir/ritonavir
  Cmax: 361 ng/mL
[2]; human, oral, group 2, period 2 (day 35): raltegravir 800 mg once daily + darunavir/ritonavir 800/100 mg once daily
  Cmax: 556 ng/mL
[2]; human, oral, GM Ctrough, group 1, period 1 (day 21): raltegravir 400 mg twice daily, without darunavir/ritonavir
  concentration at 12 h: 23 ng/mL
[2]; human, oral, GM Ctrough, group 2, period 1 (day 21): raltegravir 400 mg twice daily, without darunavir/ritonavir
  concentration at 12 h: 28 ng/mL
[2]; human, oral, GM Ctrough, group 2, period 2 (day 35): raltegravir 800 mg once daily + darunavir/ritonavir 800/100 mg once daily
  concentration at 24 h: 11 ng/mL
[3]; PBMC (intracellular)/plasma, oral, 400 mg, AUC, group 1, period 1 (day 21): raltegravir 400 mg twice daily, without darunavir/ritonavir
  Kp: 4.9
[3]; PBMC (intracellular)/plasma, oral, 400 mg, AUC, group 2, period 1 (day 21): raltegravir 400 mg twice daily, without darunavir/ritonavir
  Kp: 5.6
[3]; PBMC (intracellular)/plasma, oral, 400 mg, Cmax, group 1, period 1 (day 21): raltegravir 400 mg twice daily, without darunavir/ritonavir
  Kp: 4.6
[3]; PBMC (intracellular)/plasma, oral, 400 mg, Cmax, group 2, period 1 (day 21): raltegravir 400 mg twice daily, without darunavir/ritonavir
  Kp: 5.5
[3]; PBMC (intracellular)/plasma, oral, 400 mg, Ctrough, group 1, period 1 (day 21): raltegravir 400 mg twice daily, without darunavir/ritonavir
  Kp: 5.1
[3]; PBMC (intracellular)/plasma, oral, 400 mg, Ctrough, group 2, period 1 (day 21): raltegravir 400 mg twice daily, without darunavir/ritonavir
  Kp: 4.6
[3]; intracellular (PBMC) / plasma, AUC (raltegravir), group 1, period 2 (day 35): raltegravir 400 mg twice daily + darunavir/ritonavir 800/100 mg once daily
  Kp: 5.8
[3]; intracellular (PBMC) / plasma, AUC (raltegravir), group 2, period 2 (day 35): raltegravir 800 mg once daily + darunavir/ritonavir 800/100 mg once daily
  Kp: 6
[3]; intracellular (PBMC) / plasma, oral, Cmax, group 1, period 2 (day 35): raltegravir 400 mg twice daily + darunavir/ritonavir 800/100 mg once daily
  Kp: 5.6
[3]; intracellular (PBMC) / plasma, oral, Cmax, group 2, period 2 (day 35): raltegravir 800 mg once daily + darunavir/ritonavir 800/100 mg once daily
  Kp: 6.8
[3]; intracellular (PBMC) / plasma, oral, Ctrough, group 1, period 2 (day 35): raltegravir 400 mg twice daily + darunavir/ritonavir 800/100 mg once daily
  Kp: 4.5
[3]; intracellular (PBMC) / plasma, oral, Ctrough, group 2, period 2 (day 35): raltegravir 800 mg once daily + darunavir/ritonavir 800/100 mg once daily
  Kp at 24 h: 2.4
[4]
  virological response: did not show the same virological response
[5]; group 1, period 1 (day 21): raltegravir 400 mg twice daily, without darunavir/ritonavir
  GM AUC: 9010 ng/h/mL
[5]; group 1, period 1 (day 21): raltegravir 400 mg twice daily, without darunavir/ritonavir, listed as raltegravir
  GM AUC: 9010 (7852–13,519) ng·h^−1·mL^−1
[5]; [6]
  GM Ctrough: 105 ng/mL
[5]; [7]
  GM Ctrough: 105 (51–295) ng/mL
[5]; group 2, period 1 (day 21): raltegravir 400 mg twice daily, without darunavir/ritonavir
  GM AUC: 8780 ng/h/mL
[5]; group 2, period 1 (day 21): raltegravir 400 mg twice daily, without darunavir/ritonavir, listed as raltegravir
  GM AUC: 8780 (7286–16,400) ng·h^−1·mL^−1
[5]; [8]
  GM Ctrough: 22 ng/mL
[5]; human, PBMC (intracellular), oral, 400 mg, group 2, period 1 (day 21): raltegravir 400 mg twice daily, without darunavir/ritonavir
  Cmax: 1870 ng/mL
[5]; human, PBMC, 400 mg, group 1, period 1 (day 21): raltegravir 400 mg twice daily, without darunavir/ritonavir
  Cmax: 2310 ng/mL
[5]; human, PBMC, GM Ctrough, group 1, period 1 (day 21): raltegravir 400 mg twice daily, without darunavir/ritonavir
  concentration at 12 h: 101 ng/mL
[5]; human, PBMC, GM Ctrough, group 2, period 1 (day 21): raltegravir 400 mg twice daily, without darunavir/ritonavir
  concentration at 12 h: 115 ng/mL
[5]; human, PBMC, oral, 400 mg, group 1, period 1 (day 21): raltegravir 400 mg twice daily, without darunavir/ritonavir
  Cmax: 2310 ng/mL
[5]; human, PBMC, oral, group 1, period 2 (day 35): raltegravir 400 mg twice daily + darunavir/ritonavir 800/100 mg once daily
  Cmax: 2170 ng/mL
[5]; human, PBMC, oral, group 2, period 2 (day 35): raltegravir 800 mg once daily + darunavir/ritonavir 800/100 mg once daily
  Cmax: 2820 ng/mL
[5]; human, PBMC, oral, GM Ctrough, group 1, period 1 (day 21): raltegravir 400 mg twice daily, without darunavir/ritonavir
  concentration at 12 h: 101 ng/mL
[5]; human, PBMC, oral, GM Ctrough, group 2, period 1 (day 21): raltegravir 400 mg twice daily, without darunavir/ritonavir
  concentration at 12 h: 115 ng/mL
[5]; human, PBMC, oral, GM Ctrough, group 2, period 2 (day 35): raltegravir 800 mg once daily + darunavir/ritonavir 800/100 mg once daily
  concentration at 24 h: 22 ng/mL
